The text below walks through data of US20250051762A1, “PLATFORM USING DNA-ENCODED SMALL MOLECULE LIBRARIES AND RNA SELECTION TO DESIGN SMALL MOLECULES THAT TARGET RNA” (University of Florida Research Foundation, Incorporated, priority 2021, published 2025).

SMILES strings stand for the structures.

Holding throughout (format): cell-based, human
Assay [1] relates to MCF-10a cells expressing mutant pri-miR-27a. Nature of the assay: Migration of MCF-10a cells expressing mutant pri-miR-27a. The following applies: forced expression of mutated pri-miR-27a. The procedure: MCF-10a cells were transfected with plasmids to express pri-miR-27a and mutant pri-miR-27a in 12- or 24-well plates with Lipofectamine 2000 per the manufacturer's protocol. For treatment of compounds, stocks were diluted in growth medium and added to cells for 48 h. The miRCURY miR-27a LNA inhibitor (QIAGEN, Cat #339121) was used as a positive control by diluting in growth medium to a final concentration of 1 nM. The miRCURY LNA Negative Control (QIAGEN, Cat #YI00199007-DDA) was used as a negative control, which has also diluted in growth medium to a final concentration of 1 nM.
Migration assay: MDA-MB-231 cells were grown in 60 mm diameter dishes and treated as described in “Cell culture and compound treatment” for 12 h. The medium was then removed and replaced with growth medium lacking FBS but with the same concentration of compound. After 12 h of serum starvation, the cells were detached and seeded to ThinCert™ (GBO) 24-well hanging inserts with 8 μm pores (˜5×10^4 cells per insert). Fresh growth medium with FBS was dispended in a 24-well plate (600 μL each well), and the ThinCert™ hanging inserts containing cells were then placed into the wells. After incubating for 24 h, the growth medium in the inserts was removed, and the remaining cells were washed twice with 1×DPBS. […] The remaining cells were then imaged by microscopy and counted for quantification (3 fields of view per sample).

Assay [2] deals with MDA-MB-231 cells. Nature of the assay: miRNome profiling of all miRNAs detectable in MDA-MB-231 cells. The following applies: 1 μM, FDR <1%, P<0.01.
Assay [3] relates to pri-miR-27a. Nature of the assay: RT-qPCR of pri- and mature miR-27a in LNCaP cells. The protocol:
(§1) Cell lines. Compounds were tested in MDA-MB-231 TNBC cells (HTB-26, ATCC), LNCaP metastatic prostate cancer cells (gifted from Junli Luo lab), MCF-7 (HTB-22, ATCC) breast cancer cells, HeLa cervical adenocarcinoma cells (CCL-2, ATCC), and MCF-10a, a model of healthy breast epithelial cells (CRL-10317, ATCC).
(§2) Cell culture and compound treatment. All cells were maintained at 37° C. with 5% CO2. MDA-MB-231 and LNCaP cells were cultured in RPMI 1640 medium with L-glutamine & 25 mM HEPES (Corning) supplemented with 10% (v/v) fetal bovine serum (FBS; Sigma) and 1× (v/v) Antibiotic-Antimycotic solution (Corning). MCF-7 and HeLa cells were cultured in DMEM medium with 4.5 g/L glucose (Corning), supplemented with 10% FBS, 1× (v/v) Glutagro (Corning), and 1× (v/v) Antibiotic-Antimycotic solution. […]
(§3) Analysis of mRNA abundance: Each cell line was grown as a monolayer in 12- or 24-well plates and treated as described in “Cell culture and compound treatment”. […] Relative abundance of mature miRNAs was calculated by normalizing to RNU6, and relative abundance for pri-miRNAs and mRNAs was calculated by normalizing to 18S ribosomal RNA, using the AAC, method. […]
A general note: Quantitative PCR measures a nucleic acid by following its amplification.

Assay [4] relates to pri-miR-27a. Nature of the assay: RT-qPCR of pri- and mature miR-27a in MCF-7 cells. The note with it: MCF-7, RT-qPCR. The protocol:
as §1, §2, §3

The subject of assay [5] is pri-miR-27a. Nature of the assay: RT-qPCR of pri- and mature miR-27a in HeLa cells. The procedure: as §1, §2, §3
Assay [6] has as its system PP4C. Nature of the assay: Western blot of PP4C in MDA-MB-231 cells. The note with it: relative to β-actin, 48 h. The protocol: Western Blotting: MDA-MB-231 cells were grown in 6-well plates to ˜80% confluency in complete growth medium and then incubated with 9 at the indicated concentrations for 48 h. Total protein was extracted using M-PER Mammalian Protein Extraction Reagent (Pierce Biotechnology) using the manufacturer's protocol and quantified using a Micro BCA Protein Assay Kit (Pierce Biotechnology). Approximately 50 μg of total protein was separated on a 10% SDS-polyacrylamide gel, and then transferred to a PVDF membrane. The membrane was washed with 1× Tris-buffered saline (TBS) and then blocked in 1×TBST (1×TBS containing 0.1% (v/v) Tween-20) containing 5% (w/v) milk for 1 h at room temperature. […] The membrane was again washed with 1×TBST, and protein expression was quantified using SuperSignal West Pico Chemiluminescent Substrate (Pierce Biotechnology) per the manufacturer's protocol.
To quantify b-actin expression, used for normalization, the membrane was stripped using 1× Stripping Buffer (200 mM glycine, pH 2.2 and 0.1% SDS) followed by washing in 1×TBST. […] The fold change of the target protein expression (PP4C or PDCD4) was calculated by normalizing its band intensity to b-actin band intensity using ImageJ.
(In general: Immunoblotting shows a protein as a band on a membrane.)

Take `C#CCN(CC(N)=O)C(=O)C[C@H](Cc1c[nH]c2ccccc12)NC(=O)[C@@H]1C[C@H](NC(=O)Cn2c(=O)[nH]c3ccccc3c2=O)CN1` [Compound 9]: the “rescue of migratory phenotype” value in assay [1] was “did not inhibit biogenesis of the mutated pri-miR-27a in MCF-10A (FIG. 3B) or rescue the migratory phenotype”. For the same compound, in assay [2], the “only statistically significant effect across the miRNome” value was “downregulation of miR-27a”. In addition, the “dose with significant inhibition of miR-27a processing” value in assay [3], in assay [4] and in assay [5] was 100 nM each time. The PP4C expression entry in assay [6] is reported as “upregulation”.
